Reference: the NIST ThermoML archive (doi:10.1016/j.jct.2009.11.018)
Numbers after ± are expanded uncertainties.

Assay: xn = mol fraction of the nth substance listed
Conditions: 298.15 K, 101 kPa, Liquid, Pycnometric method

CCC(O)CO (centres undefined) [1,2-butanediol] + O
Conditions | mass density [kg/m3]
x1 = 0.0625 | 1009.5 ± 2.7
x1 = 0.1347 | 1015.8 ± 2.7
x1 = 0.2153 | 1016.4 ± 2.7
x1 = 0.3019 | 1014.2 ± 2.7
x1 = 0.3915 | 1011.6 ± 2.7
x1 = 0.4804 | 1009.2 ± 2.7
x1 = 0.5651 | 1006.9 ± 2.7
x1 = 0.6428 | 1005.2 ± 2.7
x1 = 0.7115 | 1003.6 ± 2.7
x1 = 0.7703 | 1002.4 ± 2.7
x1 = 0.8195 | 1001.4 ± 2.7
x1 = 0.8595 | 1000.7 ± 2.7
x1 = 0.8916 | 1000.2 ± 2.7
x1 = 0.9244 | 999.9 ± 2.7

CC(O)CO (centres undefined) [1,2-propanediol] + O
Conditions | mass density [kg/m3]
x1 = 0.0731 | 1016.4 ± 2.7
x1 = 0.1555 | 1031.1 ± 2.7
x1 = 0.2449 | 1037.7 ± 2.7
x1 = 0.3384 | 1039.6 ± 2.7
x1 = 0.4321 | 1039.8 ± 2.7
x1 = 0.5223 | 1039 ± 2.7
x1 = 0.6058 | 1038 ± 2.7
x1 = 0.6803 | 1036.8 ± 2.7
x1 = 0.7446 | 1035.9 ± 2.7
x1 = 0.7987 | 1035 ± 2.7
x1 = 0.843 | 1034.5 ± 2.7
x1 = 0.8786 | 1033.8 ± 2.7
x1 = 0.9068 | 1033.4 ± 2.7
x1 = 0.9355 | 1033.1 ± 2.7

CC(O)CCO (centres undefined) [1,3-butanediol] + O
Conditions | mass density [kg/m3]
x1 = 0.0625 | 1008.2 ± 2.7
x1 = 0.1347 | 1015.9 ± 2.7
x1 = 0.2153 | 1019.2 ± 2.7
x1 = 0.3019 | 1018.8 ± 2.7
x1 = 0.3915 | 1016.8 ± 2.7
x1 = 0.4804 | 1014.4 ± 2.7
x1 = 0.5651 | 1012.2 ± 2.7
x1 = 0.6428 | 1009.9 ± 2.7
x1 = 0.7115 | 1007.9 ± 2.7
x1 = 0.7703 | 1006.2 ± 2.7
x1 = 0.8195 | 1004.8 ± 2.7
x1 = 0.8595 | 1003.8 ± 2.6
x1 = 0.8916 | 1003 ± 2.6
x1 = 0.9244 | 1002.2 ± 2.6

OCCCCO [1,4-butanediol] + O
Conditions | mass density [kg/m3]
x1 = 0.0625 | 1006.6 ± 2.7
x1 = 0.1347 | 1015 ± 2.7
x1 = 0.2153 | 1019.9 ± 2.7
x1 = 0.3019 | 1021.6 ± 2.7
x1 = 0.3915 | 1021.7 ± 2.7
x1 = 0.4804 | 1021 ± 2.7
x1 = 0.5651 | 1020 ± 2.7
x1 = 0.6428 | 1018.8 ± 2.7
x1 = 0.7115 | 1017.5 ± 2.7
x1 = 0.7703 | 1016.6 ± 2.7
x1 = 0.8195 | 1015.7 ± 2.7
x1 = 0.8595 | 1015.1 ± 2.7
x1 = 0.8916 | 1014.7 ± 2.7
x1 = 0.9244 | 1014.1 ± 2.7

CC(O)C(C)O (centres undefined) [2,3-butanediol] + O
Conditions | mass density [kg/m3]
x1 = 0.0618 | 1014.1 ± 2.7
x1 = 0.1379 | 1021.5 ± 2.7
x1 = 0.1796 | 1023.1 ± 2.7
x1 = 0.2179 | 1023.2 ± 2.7
x1 = 0.2417 | 1022.7 ± 2.7
x1 = 0.2696 | 1022 ± 2.7
x1 = 0.3027 | 1021 ± 2.7
x1 = 0.3426 | 1019.5 ± 2.7
x1 = 0.3913 | 1017.6 ± 2.7
x1 = 0.4524 | 1015.2 ± 2.7
x1 = 0.5308 | 1012.2 ± 2.7
x1 = 0.6352 | 1008.4 ± 2.7
x1 = 0.7805 | 1004.1 ± 2.7
x1 = 0.9001 | 1000.9 ± 2.7

OCCCO [propan-1,3-diol] + O
Conditions | mass density [kg/m3]
x1 = 0.0731 | 1015.1 ± 2.7
x1 = 0.1555 | 1028.5 ± 2.7
x1 = 0.2449 | 1038.2 ± 2.8
x1 = 0.3384 | 1044.4 ± 2.8
x1 = 0.4321 | 1047.9 ± 2.8
x1 = 0.5223 | 1049.6 ± 2.8
x1 = 0.6058 | 1050.3 ± 2.8
x1 = 0.6803 | 1050.4 ± 2.8
x1 = 0.7446 | 1050.5 ± 2.8
x1 = 0.7987 | 1050.5 ± 2.8
x1 = 0.843 | 1050.4 ± 2.8
x1 = 0.8786 | 1050.4 ± 2.8
x1 = 0.9068 | 1050.2 ± 2.8
x1 = 0.9355 | 1049.9 ± 2.8
